Results reported in patent publication US7772180B2, “Hepatitis C virus inhibitors” (Bristol-Myers Squibb Company, priority 2006, dated 2010).
Read-outs that look alike come from different tables or passages of the source.

Tests used:
[1] = target: T1, human neutrophil elastase (HNE) (Homo sapiens, UniProt P08246); assay: Specificity assay, human neutrophil elastase; format: biochemical; details: read-out: HLE activity in the specificity assays (IC50)
T1 construct: purchased Sigma, EMDbiosciences
T1 sequence (P08246 30-267): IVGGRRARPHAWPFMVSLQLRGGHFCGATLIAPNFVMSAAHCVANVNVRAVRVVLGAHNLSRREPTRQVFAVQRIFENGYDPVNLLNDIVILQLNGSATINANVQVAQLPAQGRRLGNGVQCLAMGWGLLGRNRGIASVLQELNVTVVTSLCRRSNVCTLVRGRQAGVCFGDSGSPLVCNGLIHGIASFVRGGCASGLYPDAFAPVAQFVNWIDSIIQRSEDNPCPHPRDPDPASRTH
Protocol: (§1) The specificities of compounds of the present disclosure were determined against a variety of serine proteases: human neutrophil elastase (HNE), porcine pancreatic elastase (PPE) and human pancreatic chymotrypsin and one cysteine protease: human liver cathepsin B. In all cases a 96-well plate format protocol using either colorimetric p-nitroaniline (pNA) substrate or fluorometric Amino-Methyl-Coumarin (AMC) specific for each enzyme was used as described previously (PCT Patent Application No. WO 00/09543) with some modifications to the serine protease assays. All enzymes were purchased from Sigma, EMDbiosciences while the substrates were from Bachem, Sigma and EMDbiosciences.
(§2) The pNA assay for Chymotrypsin included a 1 h enzyme-inhibitor pre-incubation at room temperature followed by addition of substrate and hydrolysis to ˜15% conversion as measured on a Spectramax Pro microplate reader. Compound concentrations varied from 100 to 0.4 μM depending on their potency. Cathepsin B, HNE, and PPE assays each was initiated by addition of substrate to enzyme-inhibitor pre-incubated for 10 min at room temperature and hydrolysis to 15% conversion as measured on cytofluor.
50 mM Tris-HCl, pH 8.0, 50 mM NaCl, 0.1 mM EDTA, 3% DMSO, 0.02% Tween-20, 5 μM succ-AAPV-AMC and 20 nM HNE or 8 nM PPE;
(§3) The percentage of inhibition was calculated using the formula: [1−((UVinh−UVblank)/(UVctl−UVblank))]×100 […]

[2] = target: T2, human pancreatic chymotrypsin (Homo sapiens, UniProt P17538); assay: Specificity assay, chymotrypsin; format: biochemical; details: read-out: Chymotrypsin activity in the specificity assays (IC50)
T2 construct: purchased Sigma, EMDbiosciences
T2 sequence (P17538 19-263): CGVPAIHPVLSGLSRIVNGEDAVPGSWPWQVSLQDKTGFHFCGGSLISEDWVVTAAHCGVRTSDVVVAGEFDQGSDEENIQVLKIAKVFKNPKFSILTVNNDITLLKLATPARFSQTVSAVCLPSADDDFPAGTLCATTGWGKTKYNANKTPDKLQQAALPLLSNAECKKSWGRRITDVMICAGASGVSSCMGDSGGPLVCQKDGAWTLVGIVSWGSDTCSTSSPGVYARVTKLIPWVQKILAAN
Protocol: as §1
as §2, with “cytofluor. […]” for “cytofluor.”
as §3

[3] = system: HCV replicon (strain 1b) in HUH-7 cells; assay: HCV replicon FRET assay; format: cell-based, Hepatitis C virus; details: Hepatitis C virus
[4] = system: HCV replicon with Renilla luciferase reporter in HUH-7 cells; assay: HCV replicon luciferase reporter assay; format: cell-based, Hepatitis C virus
Excerpt: An HCV replicon whole cell system was established as described by Lohmann V, Korner F, Koch J, Herian U, Theilmann L, Bartenschlager R., Science 285(5424): 110-3 (1999). This system enabled us to evaluate the effects of our HCV Protease compounds on HCV RNA replication. Briefly, using the HCV strain 1b sequence described in the Lohmann paper (Assession number: AJ238799), an HCV cDNA was synthesized by Operon Technologies, Inc. (Alameda, Calif.), and the full-length replicon was then assembled in plasmid pGem9zf(+) (Promega, Madison, Wis.) using standard molecular biology techniques. The replicon consists of (i) the HCV 5′ UTR fused to the first 12 amino acids of the capsid protein, (ii) the neomycin phosphotransferase gene (neo), (iii) the IRES from encephalomyocarditis virus (EMCV), and (iv) HCV NS3 to NS5B genes and the HCV 3′ UTR. […]
As a secondary assay, EC50 determinations from the replicon FRET assay were confirmed in a replicon luciferase reporter assay. […] Following 4 days in a 37° C./5% CO2 incubator, cells were analyzed for Renilla Luciferase activity using the Promega Dual-Glo Luciferase Assay System. […] Plates were read on a Packard TopCount NXT using a luminescence program.
The percentage inhibition was calculated using the formula below: […]
The values were graphed and analyzed using XLfit to obtain the EC50 value.

C=C[C@@H]1C[C@]1(NC(=O)[C@@H]1C[C@@H](Oc2nc(N(C)C)cc3cc(OC)ccc23)CN1C(=O)C(Nc1cc(C)cc(C)n1)C(C)(C)C)C(=O)NS(=O)(=O)C1CC1 (single isomer, unassigned) [Compound 18]
IC50 [1]: > 1560 nM | IC50 [2]: > 50000 nM | EC50 ([3]; Huh-7, read-out: EC50 in the replicon FRET assay, replicon FRET assay): 9 nM | EC50 ([3]; Huh-7, read-out: HCV Pro Replicon (EC50), HCV replicon cell assay, activity range class): 3 to 100 nM | EC50 [4]: 1.1 nM
